Reference: patent US11180504B2 (ORCHID PHARMA LTD., priority 2016, dated 2021)
Converted amounts (≈) assume the structure as drawn. Like-named read-outs stand apart in the source and are kept apart here.

Assays:
[1] = system: carbapenem sensitive Pseudomonas aeruginosa; test: MIC by broth micro-dilution (CLSI), carbapenem sensitive P. aeruginosa; format: cell-based
[2] = system: carbapenem sensitive Escherichia coli; test: MIC by broth micro-dilution (CLSI), carbapenem sensitive E. coli; format: cell-based
[3] = system: carbapenemase producing K. pneumoniae; test: MIC by broth micro-dilution (CLSI), carbapenemase producing K. pneumoniae; format: cell-based, Klebsiella pneumoniae
[4] = system: methicillin-sensitive Staphylococcus aureus; test: MIC by broth micro-dilution (CLSI), methicillin-sensitive S. aureus; format: cell-based; details: MSSA S. aureus ATCC29213
[5] = Meropenem susceptible P. aeruginosa ATCC27853
[6] = Escherichia coli, ATCC25922, ESBL −ve E. coli ATCC25922, read-out: MIC
[7] = Klebsiella pneumoniae, ATCCBAA1705, KPC-2 K. pneumoniae ATCC BAA-1705, read-out: MIC
[8] = Staphylococcus aureus, ATCC 29213 / MSSA, read-out: MIC
[9] = KPC-2 K. pneumoniae ATCC BAA-1705
[10] = Pseudomonas aeruginosa, ATCC27853, Meropenem susceptible P. aeruginosa ATCC27853, read-out: MIC

Structure (SMILES) | MIC [1, 5] | MIC [2, 6] | MIC [3, 7] | MIC [4, 8] | MIC ([2]; ESBL −ve E. coli ATCC25922) | MIC [3, 9] | MIC [4] | MIC [1, 10]
C[C@@H](NC(=O)Cn1cnnn1)[C@H]1C(=O)N2C(C(=O)O)=C(S[C@@H]3CN[C@H](C(=O)N4CCC5CN(C(=N)N)CCC54)C3)[C@H](C)[C@H]12 (single isomer, unassigned) [Example 560] | 1 µg/mL (≈ 1.62 µM) |  |  |  | 0.125 µg/mL (≈ 0.203 µM) | 0.5 µg/mL (≈ 0.812 µM) | 1 µg/mL (≈ 1.62 µM) | 
C[C@@H](NC(=O)Cn1cnnn1)[C@H]1C(=O)N2C(C(=O)O)=C(S[C@@H]3CN[C@H](C(=O)N4CC5CCN(CCN)C5C4)C3)[C@H](C)[C@H]12 (single isomer, unassigned) [Example 578] |  | 0.25 µg/mL (≈ 0.415 µM) | 1 µg/mL (≈ 1.66 µM) | 2 µg/mL (≈ 3.32 µM) |  |  |  | 4 µg/mL (≈ 6.64 µM)
C[C@@H](NC(=O)Cn1cnnn1)[C@H]1C(=O)N2C(C(=O)O)=C(S[C@@H]3CN[C@H](C(=O)N4CC(N)C(CO)C4)C3)[C@H](C)[C@H]12 (single isomer, unassigned) [Example 587] | 2 µg/mL (≈ 3.55 µM) |  |  |  | 0.25 µg/mL (≈ 0.444 µM) | 2 µg/mL (≈ 3.55 µM) | 4 µg/mL (≈ 7.1 µM) | 
C[C@@H](NC(=O)Cn1cnnn1)[C@H]1C(=O)N2C(C(=O)O)=C(S[C@@H]3CN[C@H](C(=O)N4CC5CNC5C4)C3)[C@H](C)[C@H]12 (single isomer, unassigned) [Example 590] |  | 0.25 µg/mL (≈ 0.458 µM) | 1 µg/mL (≈ 1.83 µM) | 4 µg/mL (≈ 7.33 µM) |  |  |  | 1 µg/mL (≈ 1.83 µM)
C[C@@H](NC(=O)Cn1cnnn1)C1C(=O)N2C(C(=O)O)=C(S[C@@H]3CN[C@H](C(=O)N4CCN(C[C@@H](F)CN)CC4)C3)[C@H](C)C12 (stereo in doubt) [Example 462, (4R,5S,6R)-6-((R)-1-(2-(1H-tetrazol-1-yl)acetamido)ethyl)-3-((3S,5S)-5-(4-((S)-3-amino-2-fluoropropyl)piperazine-1-carbonyl)pyrrolidin-3-ylthio)-4-methyl-7-oxo-1-azabicyclo[3.2.0]hept-2-ene-2-carboxylic acid] |  | 0.25 µg/mL (≈ 0.411 µM) | 1 µg/mL (≈ 1.64 µM) | 4 µg/mL (≈ 6.57 µM) |  |  |  | 2 µg/mL (≈ 3.29 µM)
C[C@@H](NC(=O)CC1CCCN1)[C@H]1C(=O)N2C(C(=O)O)=C(S[C@@H]3CN[C@H](C(=O)N4CCC(N)C4)C3)[C@H](C)[C@H]12 (stereo in doubt) [Example 509, (4R,5S,6R)-3-((3S,5S)-5-((R)-3-aminopyrrolidine-1-carbonyl)pyrrolidin-3-ylthio)-4-methyl-7-oxo-6-((R)-1-(2-((S)-pyrrolidin-2-yl)acetamido)ethyl)-1-azabicyclo[3.2.0]hept-2-ene-2-carboxylic acid] |  | 4 µg/mL (≈ 7.48 µM) | 4 µg/mL (≈ 7.48 µM) | 32 µg/mL (≈ 59.8 µM) |  |  |  | 32 µg/mL (≈ 59.8 µM)

Continued, values first:

MIC [1, 5] | MIC [2, 6] | MIC [3, 7] | MIC [4, 8] | MIC ([2]; ESBL −ve E. coli ATCC25922) | MIC [3, 9] | MIC [4] | MIC [1, 10] | Structure (SMILES)
4 µg/mL (≈ 6.5 µM) | 0.25 µg/mL (≈ 0.406 µM) | 1 µg/mL (≈ 1.62 µM) | 1 µg/mL (≈ 1.62 µM) |  |  |  |  | C[C@@H](NC(=O)Cn1cnnn1)[C@H]1C(=O)N2C(C(=O)O)=C(S[C@@H]3CN[C@H](C(=O)N4CCC5CN(C(=N)N)CCC54)C3)[C@H](C)[C@H]12 (single isomer, unassigned) [Example 559]
 | 0.5 µg/mL (≈ 0.848 µM) | 2 µg/mL (≈ 3.39 µM) | 4 µg/mL (≈ 6.78 µM) |  |  |  | 8 µg/mL (≈ 13.6 µM) | C[C@@H](NC(=O)Cn1cnnn1)[C@H]1C(=O)N2C(C(=O)O)=C(S[C@@H]3CN[C@H](C(=O)N4CCC5CNCC54CO)C3)[C@H](C)[C@H]12 (single isomer, unassigned) [Example 561]
 | 0.25 µg/mL (≈ 0.415 µM) | 1 µg/mL (≈ 1.66 µM) | 2 µg/mL (≈ 3.32 µM) |  |  |  | 2 µg/mL (≈ 3.32 µM) | C[C@@H](NC(=O)Cn1cnnn1)[C@H]1C(=O)N2C(C(=O)O)=C(S[C@@H]3CN[C@H](C(=O)N4CC5CCN(C(=N)N)C5C4)C3)[C@H](C)[C@H]12 (single isomer, unassigned) [Example 569]
2 µg/mL (≈ 3.32 µM) |  |  |  | 0.125 µg/mL (≈ 0.208 µM) | 1 µg/mL (≈ 1.66 µM) | 1 µg/mL (≈ 1.66 µM) |  | C[C@@H](NC(=O)Cn1cnnn1)[C@H]1C(=O)N2C(C(=O)O)=C(S[C@@H]3CN[C@H](C(=O)N4CC5CCN(C(=N)N)C5C4)C3)[C@H](C)[C@H]12 (single isomer, unassigned) [Example 570]
4 µg/mL (≈ 6.17 µM) | 0.25 µg/mL (≈ 0.385 µM) | 2 µg/mL (≈ 3.08 µM) | 4 µg/mL (≈ 6.17 µM) |  |  |  |  | C[C@@H](NC(=O)Cn1cnnn1)[C@H]1C(=O)N2C(C(=O)O)=C(S[C@@H]3CN[C@H](C(=O)N4CCC(C(=O)NCC(O)CN)CC4)C3)[C@H](C)[C@H]12 (single isomer, unassigned) [Example 572]
1 µg/mL (≈ 1.54 µM) |  |  |  | 0.125 µg/mL (≈ 0.193 µM) | 2 µg/mL (≈ 3.08 µM) | 4 µg/mL (≈ 6.17 µM) |  | C[C@@H](NC(=O)Cn1cnnn1)[C@H]1C(=O)N2C(C(=O)O)=C(S[C@@H]3CN[C@H](C(=O)N4CCC(C(=O)NCC(O)CN)CC4)C3)[C@H](C)[C@H]12 (single isomer, unassigned) [Example 573]
 | 0.25 µg/mL (≈ 0.444 µM) | 1 µg/mL (≈ 1.77 µM) | 4 µg/mL (≈ 7.1 µM) |  |  |  | 2 µg/mL (≈ 3.55 µM) | C[C@@H](NC(=O)Cn1cnnn1)[C@H]1C(=O)N2C(C(=O)O)=C(S[C@@H]3CN[C@H](C(=O)N4CC(N)C(CO)C4)C3)[C@H](C)[C@H]12 (single isomer, unassigned) [Example 586]
